According to patent EP4603105A1, “PHARMACEUTICAL COMPOSITION CONTAINING CYCLIC COMPOUND HAVING SELECTIVE KRAS INHIBITORY EFFECT AGAINST HRAS AND NRAS” (CHUGAI SEIYAKU KABUSHIKI KAISHA, priority 2022, dated 2024):

How the values were obtained:
[1] = biological target: GDP-bound KRAS wild-type protein (Homo sapiens, UniProt P01116); assay: Binding to KRAS by surface plasmon resonance (SPR), dissociation constant KD; settings: Single Cycle Kinetics, 1:1 binding model
Outline: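 Measured at 30°C: SPR with GDP-loaded, E. coli-expressed biotin-Avi RAS captured (~100–300 RU), ascending 75 s compound injections, HBS pH 7.4 with GDP, MgCl2, 4% DMSO. KD from 1:1 fit.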

[2] = biological target: GDP-bound NRAS wild-type protein (Homo sapiens, UniProt P01111); assay: Binding to NRAS by surface plasmon resonance (SPR), KD and KD ratio to KRAS; settings: ratio of the KD value with respect to GDP-bound NRAS wild-type protein to the KD value with respect to KRAS
Outline: (§1)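 Compound binding is evaluated by SPR single-cycle kinetics, with concentrations added intermittently from low to high for 75 s each. Target surfaces carry GDP-loaded biotinylated Avi-RAS at about 100–300 RU, regenerated after each cycle; temperature 30°C. A 1:1 binding model gives KD.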

HRAS wild-type protein = HRAS wild-type protein (Homo sapiens, UniProt P01112); assay: Binding to HRAS by surface plasmon resonance (SPR), KD and KD ratio to KRAS; settings: ratio of the KD value with respect to HRAS wild-type protein to the KD value with respect to KRAS
Outline: as §1

[3] = test system: human lung cancer strain NCI-H441; format: cell-based
Outline: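 Proliferation was scored by […] measured after the reagent was added to cultures kept at 37°C in 5% carbon dioxide.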

Sequence of GDP-bound KRAS wild-type protein (P01116 1-188 isoform P01116-2): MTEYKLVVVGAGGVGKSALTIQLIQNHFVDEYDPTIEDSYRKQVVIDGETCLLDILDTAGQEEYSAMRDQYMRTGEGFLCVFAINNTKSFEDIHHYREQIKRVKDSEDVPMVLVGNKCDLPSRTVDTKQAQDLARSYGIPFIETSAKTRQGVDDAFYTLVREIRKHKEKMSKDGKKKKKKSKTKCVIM
Sequence of GDP-bound NRAS wild-type protein (P01111 whole entry): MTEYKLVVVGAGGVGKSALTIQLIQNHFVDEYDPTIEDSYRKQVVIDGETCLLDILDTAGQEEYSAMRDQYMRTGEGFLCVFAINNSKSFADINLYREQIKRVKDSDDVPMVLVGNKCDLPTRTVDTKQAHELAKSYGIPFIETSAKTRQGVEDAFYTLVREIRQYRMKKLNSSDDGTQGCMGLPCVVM
Sequence of HRAS wild-type protein (P01112 whole entry): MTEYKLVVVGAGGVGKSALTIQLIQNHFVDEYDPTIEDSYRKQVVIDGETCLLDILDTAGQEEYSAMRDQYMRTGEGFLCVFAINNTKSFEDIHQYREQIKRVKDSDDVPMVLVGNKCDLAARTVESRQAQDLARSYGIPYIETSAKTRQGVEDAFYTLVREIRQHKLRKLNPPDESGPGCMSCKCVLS

| SMILES | Kd [1] | IC50 [3] | NRAS /KRAS [2] | HRAS /KRAS (HRAS wild-type protein) |
| --- | --- | --- | --- | --- |
| CCO[C@@H]1C[C@H]2C(=O)NC3(CC(C)(C)C3)C(=O)N(C)[C@@H](C3CCCC3)C(=O)N(C)[C@H](C(=O)N(C)C)CC(=O)N(C)[C@@H](CC(C)C)C(=O)N[C@@H]([C@@H](C)CC)C(=O)N(C3CC3)CC(=O)N(C)[C@H]3C/C=C\CCN(C3=O)[C@@H](Cc3ccc(C)cc3)C(=O)N(C)CC(=O)N[C@@H](CCc3cc(F)c(C(F)(F)F)c(F)c3)C(=O)N2C1 [PP2109] | 0.29 nM | 5.7 nM | A (a compound having 10 or more and less than 20 is denoted as A) | A (a compound having 10 or more and less than 20 is denoted as A) |
| CCO[C@@H]1C[C@H]2C(=O)NC3(CC(C)(C)C3)C(=O)N(C)[C@@H](C(CC)CC)C(=O)N(C)[C@H](C(=O)N(C)C)CC(=O)N(C)[C@@H](CC3CC3)C(=O)N[C@@H]([C@@H](C)CC)C(=O)N(C)CC(=O)N(C)[C@H]3C/C=C\CCN(C3=O)[C@@H](Cc3ccc(C)cc3)C(=O)N(C)CC(=O)N[C@@H](CCc3ccc(C(F)(F)F)c(Cl)c3)C(=O)N2C1 [PP2142] | 0.3 nM | 10.3 nM | AA (a compound having 20 or more is denoted as AA) | A (a compound having 10 or more and less than 20 is denoted as A) |
| CCO[C@@H]1C[C@H]2C(=O)NC3(CC(C)(C)C3)C(=O)N(C)[C@@H](C(CC)CC)C(=O)N(C)[C@H](C(=O)N(C)C)CC(=O)N(C)[C@@H](CC)C(=O)N[C@@H]([C@@H](C)CC)C(=O)N(C)CC(=O)N(C)[C@H]3C/C=C\CCN(C3=O)[C@@H](Cc3ccc(C(F)(F)F)cc3)C(=O)N(C)CC(=O)N[C@@H](CCc3ccc(Cl)c(Cl)c3)C(=O)N2C1 [PP2179] | 1.5 nM | 13.5 nM | AA (a compound having 20 or more is denoted as AA) | A (a compound having 10 or more and less than 20 is denoted as A) |
| CCO[C@@H]1C[C@H]2C(=O)NC3(CC(C)(C)C3)C(=O)N(C)[C@@H](C(CC)CC)C(=O)N(C)[C@H](C(=O)N(C)C)CC(=O)N(C)[C@@H](CC3CC3)C(=O)N[C@@H]([C@@H](C)CC)C(=O)N(C)CC(=O)N(C)[C@H]3C/C=C\CCN(C3=O)[C@@H](Cc3ccc(C)cc3)C(=O)N(C)CC(=O)N[C@@H](CCc3ccc(Cl)c(Cl)c3)C(=O)N2C1 [PP2182] | 0.72 nM | 19.5 nM | AA (a compound having 20 or more is denoted as AA) | A (a compound having 10 or more and less than 20 is denoted as A) |
| CC[C@H](C)[C@@H]1NC(=O)[C@H](CC(C)C)N(C)C(=O)C[C@@H](C(=O)N(C)C)N(C)C(=O)[C@H](C2CCCC2)N(C)C(=O)C2(CCCC2)NC(=O)[C@@H]2C[C@@H](C)CN2C(=O)[C@H](CCc2cc(F)c(C(F)(F)F)c(F)c2)NC(=O)CN(C)C(=O)[C@H](Cc2ccc(C)cc2)N2CC/C=C\C[C@@H](C2=O)N(C)C(=O)CN(C)C1=O [PP2189] | 0.17 nM | 10.5 nM | A (a compound having 10 or more and less than 20 is denoted as A) | A (a compound having 10 or more and less than 20 is denoted as A) |
| CCC[C@H]1C(=O)N[C@@H](C2CCCC2)C(=O)N(C)CC(=O)N(C)[C@H]2C/C=C\CCN(C2=O)[C@@H](Cc2ccc(C)cc2)C(=O)N(C)CC(=O)N[C@@H](CCc2ccc(C(F)(F)F)c(Cl)c2)C(=O)N2C[C@H](OCC)C[C@H]2C(=O)NC2(CC(C)(C)C2)C(=O)N(C)[C@@H](CC(C)C)C(=O)N(C)[C@H](C(=O)N(C)C)CC(=O)N1C [PP2190] | 0.91 nM | 84.5 nM | A (a compound having 10 or more and less than 20 is denoted as A) | A (a compound having 10 or more and less than 20 is denoted as A) |

The remaining compounds from weak to strong by Kd [1], led by results:

| Kd [1] | IC50 [3] | SMILES | NRAS /KRAS [2] | HRAS /KRAS (HRAS wild-type protein) |
| --- | --- | --- | --- | --- |
| 0.79 nM | 25.4 nM | CCO[C@@H]1C[C@H]2C(=O)NC3(CC(C)(C)C3)C(=O)N(C)[C@@H](C(CC)CC)C(=O)N(C)[C@H](C(=O)N(C)C)CC(=O)N(C)[C@@H](C(C)C)C(=O)N[C@@H]([C@@H](C)CC)C(=O)N(C)CC(=O)N(C)[C@H]3C/C=C\CCN(C3=O)[C@@H](Cc3ccc(C)cc3)C(=O)N(C)CC(=O)N[C@@H](CCc3ccc(C(F)(F)F)c(Cl)c3)C(=O)N2C1 [PP2158] | AA (a compound having 20 or more is denoted as AA) | A (a compound having 10 or more and less than 20 is denoted as A) |
| 0.49 nM | 20 nM | CCO[C@@H]1C[C@H]2C(=O)NC3(CC(C)(C)C3)C(=O)N(C)[C@@H](C(CC)CC)C(=O)N(C)[C@H](C(=O)N(C)C)CC(=O)N(C)[C@@H](C(C)C)C(=O)N[C@@H]([C@@H](C)CC)C(=O)N(C)CC(=O)N(C)[C@H]3C/C=C\CCN(C3=O)[C@@H](Cc3ccc(C)cc3)C(=O)N(C)CC(=O)N[C@@H](CCc3cc(F)c(C(F)(F)F)c(F)c3)C(=O)N2C1 [PP2153] | A (a compound having 10 or more and less than 20 is denoted as A) | A (a compound having 10 or more and less than 20 is denoted as A) |
| 0.38 nM | 38 nM | CCO[C@@H]1C[C@H]2C(=O)NC3(CC(C)(C)C3)C(=O)N(C)[C@@H](C(CC)CC)C(=O)N(C)[C@H](C(=O)N3CCCC3)CC(=O)N(C)[C@@H](COC)C(=O)N[C@@H]([C@@H](C)CC)C(=O)N(C)CC(=O)N(C)[C@H]3C/C=C\CCN(C3=O)[C@@H](Cc3ccc(C)cc3)C(=O)N(C)CC(=O)N[C@@H](CCc3cc(F)c(C(F)(F)F)c(F)c3)C(=O)N2C1 [PP2139] | AA (a compound having 20 or more is denoted as AA) | A (a compound having 10 or more and less than 20 is denoted as A) |
| 0.34 nM | 17.6 nM | CCC[C@H]1C(=O)N[C@@H]([C@@H](C)CC)C(=O)N(CCC)CC(=O)N(C)[C@H]2C/C=C\CCN(C2=O)[C@@H](Cc2ccc(C)cc2)C(=O)N(C)CC(=O)N[C@@H](CCc2cc(F)c(C(F)(F)F)c(F)c2)C(=O)N2C[C@H](OCC)C[C@H]2C(=O)NC2(CC(C)(C)C2)C(=O)N(C)[C@@H](C2CCCC2)C(=O)N(C)[C@H](C(=O)N(C)C)CC(=O)N1C [PP2108] | A (a compound having 10 or more and less than 20 is denoted as A) | A (a compound having 10 or more and less than 20 is denoted as A) |
| 0.34 nM | 41.5 nM | CCO[C@@H]1C[C@H]2C(=O)NC3(CC(C)(C)C3)C(=O)N(C)[C@@H](C(CC)CC)C(=O)N(C)[C@H](C(=O)N(C)C)CC(=O)N(C)[C@@H](CC(C)C)C(=O)N[C@@H]([C@@H](C)CC)C(=O)N(C)CC(=O)N(C)[C@H]3C/C=C\CCN(C3=O)[C@@H](Cc3ccc(C)cc3)C(=O)N(C)CC(=O)N[C@@H](CCc3ccc(C(F)(F)F)c(Cl)c3)C(=O)N2C1 [PP2148] | A (a compound having 10 or more and less than 20 is denoted as A) | A (a compound having 10 or more and less than 20 is denoted as A) |
| 0.17 nM | 28.9 nM | CCO[C@@H]1C[C@H]2C(=O)NC3(CCC3)C(=O)N(C)[C@@H](C3CCCC3)C(=O)N(C)[C@H](C(=O)N(C)CC)CC(=O)N(C)[C@H]3CCCCCc4ccc(cc4)C[C@@H](C(=O)N(C)CC(=O)N[C@@H](CCc4cc(F)c(C(F)(F)F)c(F)c4)C(=O)N2C1)N1CC/C=C\C[C@@H](C1=O)N(C)C(=O)CN(C)C(=O)[C@H]([C@@H](C)CC)NC3=O [PP2117] | A (a compound having 10 or more and less than 20 is denoted as A) | A (a compound having 10 or more and less than 20 is denoted as A) |
| 0.17 nM | 9.4 nM | CCO[C@@H]1C[C@H]2C(=O)NC3(CC(C)(C)C3)C(=O)N(C)[C@@H](C(CC)CC)C(=O)N(C)[C@H](C(=O)N(C)C)CC(=O)N(C)[C@@H](CC(C)C)C(=O)N[C@@H]([C@@H](C)CC)C(=O)N(C)CC(=O)N(C)[C@H]3C/C=C\CCN(C3=O)[C@@H](Cc3ccc(C)cc3)C(=O)N(C)CC(=O)N[C@@H](CCc3cc(F)c(C(F)(F)F)c(F)c3)C(=O)N2C1 [PP2141] | A (a compound having 10 or more and less than 20 is denoted as A) | A (a compound having 10 or more and less than 20 is denoted as A) |
| 0.14 nM | 9.1 nM | C#CCN1CC(=O)N(C)[C@H]2C/C=C\CCN(C2=O)[C@@H](Cc2ccc(C)cc2)C(=O)N(C)CC(=O)N[C@@H](CCc2ccc(C(F)(F)F)c(OC)c2)C(=O)N2C[C@H](OCC)C[C@H]2C(=O)NC2(CC(C)(C)C2)C(=O)N(C)[C@@H](C2CCCC2)C(=O)N(C)[C@H](C(=O)N(C)C)CC(=O)N(C)[C@@H](CCC)C(=O)N[C@@H]([C@@H](C)CC)C1=O [PP2099] | A (a compound having 10 or more and less than 20 is denoted as A) | A (a compound having 10 or more and less than 20 is denoted as A) |
